Measurements published in ChEMBL document CHEMBL3585309, “Peroxisome Proliferator-Activated Receptor γ (PPARγ) and Ligand Choreography: Newcomers Take the Stage” (J Med Chem, 2015).

What was measured:
[1] = target: T1, Peroxisome proliferator-activated receptor gamma (Homo sapiens, UniProt P37231); assay: Activity at PPARgamma (unknown origin) assessed as transactivation activity by reporter gene assay
T1 sequence (P37231 whole entry): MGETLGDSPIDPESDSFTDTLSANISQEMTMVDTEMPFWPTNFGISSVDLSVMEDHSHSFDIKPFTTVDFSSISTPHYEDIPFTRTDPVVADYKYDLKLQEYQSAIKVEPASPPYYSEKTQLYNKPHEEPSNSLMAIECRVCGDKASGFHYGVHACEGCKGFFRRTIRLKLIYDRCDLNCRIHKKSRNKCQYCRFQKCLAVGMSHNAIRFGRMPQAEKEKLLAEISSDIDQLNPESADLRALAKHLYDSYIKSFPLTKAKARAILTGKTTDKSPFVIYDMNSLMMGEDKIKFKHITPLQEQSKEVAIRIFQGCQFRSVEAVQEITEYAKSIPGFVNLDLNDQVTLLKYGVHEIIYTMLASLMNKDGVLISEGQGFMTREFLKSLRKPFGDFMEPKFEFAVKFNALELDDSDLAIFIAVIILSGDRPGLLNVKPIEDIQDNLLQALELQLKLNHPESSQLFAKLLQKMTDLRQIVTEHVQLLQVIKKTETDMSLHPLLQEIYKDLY

[2] = target: T1, Peroxisome proliferator-activated receptor gamma; assay: Activity at human PPARgamma transfected in HEK293 cells assessed as transactivation activity after 24 hrs by Dual-luciferase reporter gene assay relative to rosiglitazone; assay type: cell-based
[3] = target: T2, Peroxisome proliferator-activated receptor gamma (Homo sapiens) (UniProt P37231); assay: Activity at PPARgamma (unknown origin) assessed as transactivation activity by reporter gene assay relative to rosiglitazone
T2 sequence (whole entry): T1 sequence (P37231 whole entry)

[4] = target: T2, Peroxisome proliferator-activated receptor gamma (Homo sapiens); assay: Activity at human full length PPARgamma transfected in COS7 cells assessed as transactivation activity by reporter gene assay relative to rosiglitazone; assay type: cell-based; conditions: COS-7
[5] = target: T1, Peroxisome proliferator-activated receptor gamma; assay: Activity at full length human PPARgamma transfected in CV1 cells assessed as transactivation activity after 24 hrs by PPRE-TK- luciferase reporter gene assay; assay type: cell-based, CV-1
[6] = target: T2, Peroxisome proliferator-activated receptor gamma (Homo sapiens); assay: Activity at full length human PPARgamma transfected in CV1 cells assessed as transactivation activity after 24 hrs by PPRE-TK- luciferase reporter gene assay relative to rosiglitazone; assay type: cell-based; conditions: CV-1
[7] = target: T2, Peroxisome proliferator-activated receptor gamma (Homo sapiens); assay: Activity at PPARgamma (unknown origin) transfected in 293T cells assessed as transactivation activity after 24 hrs by PPRE-TK- luciferase reporter gene assay relative to rosiglitazone; assay type: cell-based
[8] = target: T2, Peroxisome proliferator-activated receptor gamma (Homo sapiens); assay: Activity at human full length PPARgamma LBD transfected in COS7 cells assessed as transactivation activity by reporter gene assay relative to rosiglitazone; assay type: cell-based; conditions: COS-7
[9] = target: T1, Peroxisome proliferator-activated receptor gamma; assay: Activity at human PPARgamma transfected in HEK293 cells assessed as transactivation activity by luciferase reporter gene assay; assay type: cell-based

`Cc1c(C)n(Cc2ccc(-c3ccccc3C(=O)O)cc2)c2ccc(C(=O)N[C@@H](C)c3ccc([N+](=O)[O-])cc3)cc12` was tested, and the EC50 [1] was “Not Active”.

`Cc1c(C)n(Cc2ccc(-c3ccccc3C(=O)O)cc2)c2ccc(C(=O)NCc3cccnc3)cc12` was tested, and the EC50 [2] was “Not Active”.

Work on `CC[C@H](OC(=O)N(Cc1ccccc1)C(=O)Nc1cc(OC)cc(OC)c1)c1cc(-c2ccc(OC(C)(C)C(=O)O)cc2)no1` yielded an EC50 ([1]; read-out: EC50) of 0.183 µM and a %max [3] of 60%.

`CCCCCCCCCC(=O)O` showed a %max [4] of 60%.

`CCCc1nc2c(C)cc(-c3nc4ccccc4n3C)cc2n1Cc1ccc(-c2ccccc2C(=O)O)cc1` was tested, and the EC50 [5] was 4.5 µM and the %max [6] was 30%.

`CC[C@@H](OC(=O)N(Cc1ccccc1)C(=O)Nc1cc(OC)cc(OC)c1)c1cc(-c2ccc(OC(C)(C)C(=O)O)cc2)no1` showed an EC50 ([1]; read-out: EC50) of 0.00038 µM and a %max [3] of 70%.

`C[C@@H]1O[C@@H](O[C@@H]2[C@H](O[C@H]3C[C@]4(C)[C@H](C[C@@H](O)[C@@H]5[C@@](C)([C@]6(C)CC[C@H](C(C)(C)O)O6)CC[C@]54C)[C@@]4(C)CC[C@H](O)C(C)(C)[C@H]34)O[C@H](CO)[C@@H](O)[C@@H]2O)[C@H](O)[C@H](O)[C@H]1O` showed a %max [7] of 30%.

With `C[C@H](CCC(=O)O)C[C@H](C)C[C@H](C)C(=O)/C=C(\O)[C@H](C)C[C@H](C)C/C=C/[C@@H](C)[C@@H](O)[C@@H](C)[C@@H](O)C[C@@H]1CC[C@@](C)([C@H]2CC[C@@](C)([C@@H](C)O)O2)O1` the %max [8] was 35%.

Work on `Cc1oc(-c2ccccc2)nc1CCOc1ccc(C[C@@H](NC(=O)/C=C/c2ccco2)C(=O)O)cc1` yielded an EC50 [9] of 0.155 µM.
